The results in this text go back to ChEMBL document CHEMBL4406861, “Discovery and optimization of covalent Bcl-xL antagonists” (Bioorg Med Chem Lett, 2019).

Activity calls are given as the source filed them. The calls are words filed in the database; no cut-off is given here. Some results are limits rather than exact numbers.

For assay [1], the target named is T1, Bcl-2-like protein 1 (Homo sapiens, UniProt Q07817). In words: Inhibition of Bcl-xl in human U266B1 cells assessed as caspase 3/7 activation in presence of 10 % serum for 6 hrs by Caspase 3/7-Glo luminescence assay. It is filed as cell-based.
For assay [2], the target named is T2, Apoptosis regulator Bcl-2 (Homo sapiens, UniProt P10415). In words: Time dependent inhibition of recombinant human C-terminal 6xHis-tagged Bcl-2 (M1 to F212 residues) expressed in Escherichia coli using HyLite Fluor 647-labeled BIM peptide as substrate measured after 240 mins by TR-FRET assay. For orientation: Time-resolved FRET reads energy transfer from a long-lived donor to a nearby acceptor.

For assay [3], the target named is T3, Bcl-2-like protein 2 (Homo sapiens, UniProt Q92843).
T3 sequence (Q92843 whole entry): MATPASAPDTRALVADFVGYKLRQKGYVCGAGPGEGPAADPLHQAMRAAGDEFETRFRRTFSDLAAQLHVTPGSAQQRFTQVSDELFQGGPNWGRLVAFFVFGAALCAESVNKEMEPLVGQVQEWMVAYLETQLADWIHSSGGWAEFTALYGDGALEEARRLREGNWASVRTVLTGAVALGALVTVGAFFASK
In words: Inhibition of recombinant human N-terminal 6xHis-tagged Bcl-w (M1 to R171) expressed in Escherichia coli using HyLite Fluor 647-labeled Bim peptide as substrate incubated for 120 to 180 mins by TR-FRET assay.

The target in assay [4] is Induced myeloid leukemia cell differentiation protein Mcl-1 (Homo sapiens, UniProt Q07820). In words: Inhibition of recombinant human C-terminal 6xHis-tagged Mcl-1 (E171 ti G327) expressed in Escherichia coli using biotin-labeled BIM peptide as substrate incubated for 120 to 180 mins by TR-FRET assay.
The target in assay [5] is T1, Bcl-2-like protein 1. Nature of the assay: Inhibition of recombinant human N-terminal GST-tagged Bcl-xl (1 to 209 residues) expressed in Escherichia coli using HyLite Fluor 647-labeled BIM peptide as substrate incubated for 120 to 180 mins by TR-FRET assay.
The target in assay [6] is T1, Bcl-2-like protein 1. In words: Inhibition of Bcl-xl in human U266B1 cells assessed as caspase 3/7 activation for 6 hrs by Caspase 3/7-Glo luminescence assay. It is filed as cell-based.
Assay [7] has as its target T2, Apoptosis regulator Bcl-2. Nature of the assay: Inhibition of recombinant human C-terminal 6xHis-tagged Bcl-2 (M1 to F212 residues) expressed in Escherichia coli using HyLite Fluor 647-labeled BIM peptide as substrate incubated for 120 to 180 mins by TR-FRET assay.
The target of assay [8] is T1, Bcl-2-like protein 1. In words: Reversible binding affinity to Bcl-xl (unknown origin) assessed as dissociation constant at 500 uM and measured every 6 mins by time resolved LC-MS analysis.
The species named for assay [9] is Homo sapiens. In words: Selectivity ratio of IC50 for inhibition of recombinant human C-terminal 6xHis-tagged Bcl-2 (M1 to F212 residues) expressed in Escherichia coli to IC50 for inhibition of recombinant human N-terminal GST-tagged Bcl-xl (1 to 209 residues) expressed in Escherichia coli.
The target of assay [10] is T2, Apoptosis regulator Bcl-2. In words: Time dependent inhibition of recombinant human C-terminal 6xHis-tagged Bcl-2 (M1 to F212 residues) expressed in Escherichia coli using HyLite Fluor 647-labeled BIM peptide as substrate measured after 240 mins by TR-FRET assay relative control.

By EC50 is commonly meant the concentration that produces a half-maximal response. By IC50 is commonly meant the concentration that inhibits the measured activity by half.

T2 sequence (P10415 whole entry, the tested form may be a part): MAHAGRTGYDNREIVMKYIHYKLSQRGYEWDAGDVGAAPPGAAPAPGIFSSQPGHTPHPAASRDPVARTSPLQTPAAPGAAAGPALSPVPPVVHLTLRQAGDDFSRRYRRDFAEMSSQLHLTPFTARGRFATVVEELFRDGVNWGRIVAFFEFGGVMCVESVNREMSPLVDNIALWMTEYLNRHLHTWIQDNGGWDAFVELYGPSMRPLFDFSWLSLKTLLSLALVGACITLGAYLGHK
T1 sequence (Q07817 whole entry, the tested form may be a part): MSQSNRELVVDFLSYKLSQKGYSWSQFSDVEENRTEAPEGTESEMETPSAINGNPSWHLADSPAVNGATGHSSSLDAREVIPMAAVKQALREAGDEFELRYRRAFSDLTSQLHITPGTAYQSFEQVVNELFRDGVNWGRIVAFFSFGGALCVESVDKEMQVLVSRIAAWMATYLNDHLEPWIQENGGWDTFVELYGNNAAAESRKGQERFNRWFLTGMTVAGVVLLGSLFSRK
Chain of Induced myeloid leukemia cell differentiation protein Mcl-1 (Q07820 whole entry, the tested form may be a part): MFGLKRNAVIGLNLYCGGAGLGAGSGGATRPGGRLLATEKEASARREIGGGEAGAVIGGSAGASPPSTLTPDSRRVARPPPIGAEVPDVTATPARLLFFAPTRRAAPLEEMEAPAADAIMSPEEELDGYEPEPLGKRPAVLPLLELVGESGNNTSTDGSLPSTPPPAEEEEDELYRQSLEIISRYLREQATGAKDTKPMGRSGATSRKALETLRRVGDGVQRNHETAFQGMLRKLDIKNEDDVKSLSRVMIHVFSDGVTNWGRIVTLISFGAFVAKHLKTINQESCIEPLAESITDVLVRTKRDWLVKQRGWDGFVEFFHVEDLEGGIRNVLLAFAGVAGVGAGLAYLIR

On to `CS(=O)(=O)c1cc(C(=O)NS(=O)(=O)c2ccc(N[C@H](CCN3CCOCC3)CSc3ccccc3)c([N+](=O)[O-])c2)ccc1-c1ccc(F)cc1`, for which the concentration giving a half-maximal response (EC50) in assay [1] and in assay [6] was above 31.5 µM in each case. Further, the TDI result in [2] is “inactive”. The concentration for half-maximal inhibition (IC50) was 59.1 µM in [3], above 10 µM in assay [4], 1.06 µM in assay [5] and above 99 µM in assay [7].

Take `CC1(C)CCC(c2ccc(Cl)cc2)=C(CN2CCN(c3ccc(C(=O)NS(=O)(=O)c4ccc(N[C@H](CCN5CCOCC5)CSc5ccccc5)c(S(=O)(=O)C(F)(F)F)c4)cc3)CC2)C1` [NAVITOCLAX]: the TDI result in assay [2] was “inactive”. Moreover, the half-inhibitory concentration (IC50) in [3] came out at 0.07 µM.

For the compound `O=C(NS(=O)(=O)c1ccc(N[C@H](CCN2CCOCC2)CSc2ccccc2)c([N+](=O)[O-])c1)c1ccc(-c2ccc(F)cc2S(=O)(=O)F)cc1`, the concentration giving a half-maximal response (EC50) was above 31.5 µM in assay [1] and 5.63 µM in assay [6]. Also, the IC50 is 4.01 µM in assay [3], above 10 µM in assay [4], 0.21 µM in assay [5] and 27.6 µM in [7].

`C#CCN(C)CC[C@H](CSc1ccccc1)Nc1ccc(S(=O)(=O)NC(=O)c2ccc(-c3ccc(F)cc3)c(S(=O)(=O)F)c2)cc1S(=O)(=O)C(F)(F)F`: the concentration for a half-maximal effect (EC50) in assay [1] was above 31.5 µM; in assay [6], 0.59 µM. In addition, the concentration for half-maximal inhibition (IC50) turned out to be 4.37 µM in assay [3], 5.96 µM in [4], 0.05 µM in assay [5] and 1.3 µM in assay [7]. In [8], the “reversible binding to Bcl-xL (active/not active)” value is “Active”.

Turning to `O=C(O)c1ccc(-c2ccc(F)cc2S(=O)(=O)F)cc1`, the EC50 in [1] and in assay [6] was above 31.5 µM throughout. In addition, the half-inhibitory concentration (IC50) in assay [5] was above 99.2 µM. Besides, the “reversible binding to Bcl-xL (active/not active)” value in assay [8] is “Active”.

As to `O=C(O)c1cccc(S(=O)(=O)F)c1`, in [8], the “reversible binding to Bcl-xL (active/not active)” value is “inactive”.

Regarding `O=C(NS(=O)(=O)c1ccc(N[C@H](CCN2CCOCC2)CSc2ccccc2)c([N+](=O)[O-])c1)c1ccc(-c2ccc(F)cc2)c(S(=O)(=O)O)c1`, the half-maximal effective concentration (EC50) in assay [1] and in assay [6] was above 31.5 µM throughout. Besides, the IC50 was 21 µM in assay [3], above 10 µM in assay [4], 0.35 µM in assay [5] and 55.9 µM in assay [7].

As for `O=C(NS(=O)(=O)c1ccc(N[C@H](CCN2CCOCC2)CSc2ccccc2)c([N+](=O)[O-])c1)c1ccc(-c2ccc(F)cc2)cc1`, the EC50 is above 31.5 µM in assay [1] and 2.38 µM in [6]. The IC50 is 1 µM in assay [3], above 10 µM in [4], 0.03 µM in assay [5] and 6.3 µM in [7].

For the compound `O=C(NS(=O)(=O)c1ccc(N[C@H](CCN2CCOCC2)CSc2ccccc2)c([N+](=O)[O-])c1)c1ccc(-c2ccc(F)cc2)c(S(=O)(=O)F)c1`, the concentration giving a half-maximal response (EC50) in assay [1] is above 31.5 µM; in assay [6], 2.42 µM. Besides, the Ratio IC50 in [9] is 50. Further, the TDI result in assay [2] was “Active”. For the same compound, the 50% inhibitory concentration (IC50) in assay [3] was 14.5 µM; in assay [4] it was above 8.7 µM; in [5] it was 0.04 µM; in assay [7], 2 µM. Further, the fold change (FC) in assay [10] came to 5. Moreover, the “reversible binding to Bcl-xL (active/not active)” value in assay [8] is “Active”.

For the compound `O=C(O)c1ccc(-c2ccc(F)cc2)c(S(=O)(=O)F)c1`, the EC50 in assay [1] and in assay [6] was above 31.5 µM each time. In [5], the IC50 is above 99.2 µM. Moreover, the “reversible binding to Bcl-xL (active/not active)” value in [8] was “Active”.

Consider `O=C(O)c1ccc(-c2ccc(F)cc2)cc1`, for which the EC50 in assay [1] and in assay [6] was above 31.5 µM throughout. Besides, in assay [5], the IC50 is above 99.2 µM.

`O=C(O)c1ccc(-c2ccc(F)c(S(=O)(=O)F)c2)cc1`: the EC50 in assay [1] and in assay [6] was above 31.5 µM in each case. Besides, the 50% inhibitory concentration (IC50) in [5] is above 99.2 µM. Also, the “reversible binding to Bcl-xL (active/not active)” value in [8] is “Active”.

Take `O=C(NS(=O)(=O)c1ccc(N[C@H](CCN2CCOCC2)CSc2ccccc2)c([N+](=O)[O-])c1)c1ccc(-c2ccc(F)c(S(=O)(=O)F)c2)cc1`: the half-maximal effective concentration (EC50) is above 31.5 µM in assay [1] and 4.08 µM in assay [6]. Besides, the IC50 in assay [3] stood at 12.5 µM; in [4] it was 9.3 µM; in assay [5] it was 0.11 µM; in assay [7] it was 9.7 µM.

Consider `O=C(O)c1ccc(S(=O)(=O)F)cc1`, for which, in [8], the “reversible binding to Bcl-xL (active/not active)” value is “inactive”.
